# Experiments:
# [1] = Body weights and food consumption in diabetic db/db mice; assay type: in vivo
# Description: (§1) Genetically altered obese diabetic mice (designated C57BL/ks diabetic or db/db) were purchased from the Jackson Laboratory (Bar Harbor, Me., USA), and served as experimental animals. Male animals between the ages of 8-9 weeks were employed in the studies described here. Animals were housed (4 mice/cage) under standard laboratory conditions at 22° C. and 50% relative humidity, and were maintained on a diet of Purina rodent chow and water ad libitum. Prior to treatment, blood was collected from the tail vein of each animal. Mice that had plasma glucose levels between 350 and 600 mg/dL were used. Each treatment group consisted of eight mice that were distributed so that the mean glucose levels were equivalent in each group at the start of the study. Db/db mice received, orally by gavage: the experimental compound administered at 62.5, 125, or 250 mg/kg/day (unless otherwise noted), or metformin administered at […] for 1-3 days. Test compounds were delivered in a liquid vehicle containing 0.25% (w/v) carboxymethyl-cellulose, 1% (v/v) Tween […] (polyoxyethylene sorbitan monosterate), and up to 10% (v/v) dimethyl sulfoxide (DMSO) in a volume of 10 ml/kg. Blood was sampled from the tail vein at three hours, six, eight, twenty-four, and thirty hours post-administration (the first administration) of the particular compound in non-fasted conditions. Experiments 3-5 also sampled blood at fifty-four hours post-administration (the first administration) of the particular compound in non-fasted conditions. Blood samples were analyzed for plasma glucose levels. Individual body weights and mean food consumption (each cage) were also measured daily.
# [2] = tested on: C57BL/ks diabetic (db/db) mice; assay: Glucose-lowering (plasma glucose) in diabetic db/db mice; assay type: in vivo; details: for Change in Glucose (mg/dL) 6 H: 6 h after initial dose; for Change in Glucose (mg/dL) 30 H: 30 h after initial dose; for Change in Glucose (mg/dL) 54 H: 54 h after initial dose
# Description: as §1
# The isolated test substances were prepared as described previously (vide supra). Metformin (1,1-dimethylbiguanide), carboxymethyl cellulose and Tween 60 were purchased from Sigma Chemical Co. (St. Louis, Mo., USA; catalog #'s D-5035, C-4888, and p-1629, respectively). Plasma glucose levels were determined colorimetrically using glucose oxidase (Sigma Chemical Co.; Sigma catalog #315). Significant differences between groups (comparing compound-treated to vehicle-treated) were evaluated using analysis of variance and Fisher's post-hoc test.
# Vehicle, metformin (250 mg/kg) or enriched extract (1000 mg/kg) were given to db/db mice at 0(initial), 8, 24, 32, 48, 56, 72, 80, and 96 hours post initial dose.
# Plasma glucose levels were measured at baseline, 3 (day 1), 51 hours (Day 3), and 99 hours (Day 5).
compound,measurement,setting,value
COc1cc(O)cc(CCc2ccccc2)c1 [Compound G],Food Intake (g/mouse) 0-48 h,"[1]; 125 mg/kg, vehicle 6.0, Table 9",5.9 g/mouse
same,Body weight (g/mouse) (mean) 0 h,"[1]; 125 mg/kg, vehicle 39.8 ± 0.7, Table 9",39.0 ± 1.1 g/mouse
same,Body weight (g/mouse) (mean) 48 hr,"[1]; 125 mg/kg, vehicle 39.7 ± 0.6, Table 9",39.0 ± 1.1 g/mouse
same,adverse effect on food intake or body weight (in words),"[1]; 125 mg/kg, Tables 9 and 11",absence of any significantly adverse effect
same,Change in Glucose (mg/dL) 6 H,"[2]; 125 mg/kg q.d. oral at 0, 24, 48 h, vehicle 15.5, Table 8",35.0 mg/dL
same,Change in Glucose (mg/dL) 30 H,"[2]; 125 mg/kg q.d. oral at 0, 24, 48 h, vehicle 56.6, Table 8",-12.2 mg/dL
same,Change in Glucose (mg/dL) 54 H,"[2]; 125 mg/kg q.d. oral at 0, 24, 48 h, vehicle 88.6, Table 8",12.0 mg/dL
same,mean glucose levels rose from the baseline values,"[2]; Table 8, 125 mg/kg, fifty-four hours after initial dosing, value = size of rise",12.0 mg/dL
same,mean glucose levels declined from the baseline value,"[2]; Table 8, printed dose 250 mg/kg, thirty hours after initial dosing, value = size of decline",74.6 mg/dL
same,reduction in plasma glucose relative to vehicle (control) (in words),"[2]; oral, dose level of 125 mg/kg, Tables 8 and 10",statistically significant reduction
"CN(C)C(=N)NC(=N)N [Metformin, 1,1-dimethylbiguanide, reference compound]",Food Intake (g/mouse) 0-48 h,"[1]; 250 mg/kg, vehicle 6.0, Table 9",5.4 g/mouse
same,Food Intake (g/mouse) 0-48 h,"[1]; 250 mg/kg, vehicle 6.3, Tables 5 and 7",5.1 g/mouse
same,Body weight (g/mouse) (mean) 0 h,"[1]; 250 mg/kg, vehicle 39.2 ± 0.5, Tables 5 and 7",37.3 ± 0.7 g/mouse
same,Body weight (g/mouse) (mean) 0 h,"[1]; 250 mg/kg, vehicle 39.8 ± 0.7, Table 9",40.6 ± 0.4 g/mouse
same,Body weight (g/mouse) (mean) 48 hr,"[1]; 250 mg/kg, vehicle 39.5 ± 0.5, Tables 5 and 7",37.2 ± 0.6 g/mouse
same,Body weight (g/mouse) (mean) 48 hr,"[1]; 250 mg/kg, vehicle 39.7 ± 0.6, Table 9",40.5 ± 0.4 g/mouse
same,Change in Glucose (mg/dL) 6 H,"[2]; 250 mg/kg q.d. oral at 0, 24, 48 h, vehicle 35.9, Tables 4 and 6",-180.4 mg/dL
same,Change in Glucose (mg/dL) 30 H,"[2]; 250 mg/kg q.d. oral at 0, 24, 48 h, vehicle 79.6, Tables 4 and 6",-112.4 mg/dL
same,Change in Glucose (mg/dL) 54 H,"[2]; 250 mg/kg q.d. oral at 0, 24, 48 h, vehicle 60.3, Tables 4 and 6",-41.3 mg/dL
same,glucose levels rose,"[2]; Table 8, metformin 250 mg/kg, fifty-four hours after the initial dose, value = size of rise",6.8 mg/dL
same,lowered plasma glucose levels by,"[2]; Table 8, metformin 250 mg/kg, six hours after the initial dose, value = size of decline",approximately 113.6 mg/dL
same,lowered plasma glucose levels by,"[2]; Table 8, metformin 250 mg/kg, thirty hours after the initial dose, value = size of decline",~25.1 mg/dL
same,mean glucose levels declined from the baseline values,"[2]; Tables 4 and 6, 250 mg/kg, fifty-four hours after initial dosing, value = size of decline",41.3 mg/dL
same,mean glucose levels declined (lowered) from the baseline value,"[2]; Tables 4 and 6, 250 mg/kg, six hours after initial dosing, value = size of decline",approximately 180.4 mg/dL
same,mean glucose levels declined (lowered) from the baseline values,"[2]; Tables 4 and 6, 250 mg/kg, thirty hours after initial dosing, value = size of decline",~112.4 mg/dL
same,Change in Glucose (mg/dL) 6 H,"[2]; metformin 250 mg/kg q.d. oral, vehicle 15.5, Table 8",-113.6 mg/dL
same,Change in Glucose (mg/dL) 30 H,"[2]; metformin 250 mg/kg q.d. oral, vehicle 56.6, Table 8",-25.1 mg/dL
same,Change in Glucose (mg/dL) 54 H,"[2]; metformin 250 mg/kg q.d. oral, vehicle 88.6, Table 8",6.8 mg/dL
same,Day 1 glucose,"[2]; metformin 250 mg/kg, same schedule as extracts, 3 h post initial dose, vehicle −80.9",-180.5 mg/dL
same,Day 3 glucose,"[2]; metformin 250 mg/kg, same schedule as extracts, 51 h post initial dose, vehicle −77.1",-207.5 mg/dL
same,Day 5 glucose,"[2]; metformin 250 mg/kg, same schedule as extracts, 99 h post initial dose, vehicle +102.1",-86.4 mg/dL

# Source: patent publication US20020058701A1 (priority 2000, published 2002)
